Experimental data from US20230085307A1, “PYRIDAZINONE COMPOUND AND HERBICIDE” (NISSAN CHEMICAL CORPORATION, priority 2019, published 2023).

Columns and labels:
late watergrass = experiment: Test Example 2: herbicidal activity, application during weed generation under submerged conditions (Table 17, symbol A); assay type: in vivo, late watergrass (Echinochloa oryzicola); conditions: AAH 320 g/ha; application during weed generation, submerged conditions
Outline: (§1)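 Herbicide emulsion, diluted with water to the chosen amount, is applied onto 4 cm floodwater over alluvial soil where the weeds were co-sown and raised at 25–30° C. Application timing: 1–2 leaves. Assessment: three weeks afterwards.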

Japanese bulrush = experiment: Test Example 2: herbicidal activity, application during weed generation under submerged conditions (Table 17, symbol B); assay type: in vivo, Japanese bulrush (Schoenoplectus juncoides); conditions: AAH 320 g/ha; application during weed generation, submerged conditions
Outline: as §1

barnyard grass [1] = experiment: Test Example 3: herbicidal effect by foliage application, Wagner pot (Table 18, symbol H); assay type: in vivo, barnyard grass (Echinochloa crus-galli); conditions: 320 g/ha
Outline: (§2)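 Plants were sown in alluvial soil held under 0.1–0.5 cm standing water and grown 14 days in a greenhouse at 25–30 °C. An emulsifiable formulation, water-diluted to the set dose, was then sprayed onto the foliage, and effects were scored three weeks later using previously defined criteria.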

rice flat sedge = experiment: Test Example 3: herbicidal effect by foliage application, Wagner pot (Table 18, symbol E); assay type: in vivo, rice flat sedge (Cyperus iria); conditions: 320 g/ha
Outline: as §2

southern crabgrass = experiment: Test Example 4: herbicidal effect by soil treatment (Table 19, symbol F); assay type: in vivo, southern crabgrass (Digitaria ciliaris); conditions: AAH 320 g/ha
Outline: (§3)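 Three weeks of greenhouse growth at 25° C. to 30° C. followed a uniform surface spray of water-diluted emulsion at a predetermined herbicide amount. Seeds had been sown beforehand under about 1.5 cm of sterilized diluvial soil. Grading followed criteria set out in an earlier test.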

green foxtail [2] = experiment: Test Example 4: herbicidal effect by soil treatment (Table 19, symbol G); assay type: in vivo, green foxtail (Setaria viridis); conditions: AAH 320 g/ha
Outline: as §3

barnyard grass [3] = experiment: Test Example 4: herbicidal effect by soil treatment (Table 19, symbol H); assay type: in vivo, barnyard grass (Echinochloa crus-galli); conditions: AAH 320 g/ha
Outline: as §3

wild oat [4] = experiment: Test Example 4: herbicidal effect by soil treatment (Table 19, symbol I); assay type: in vivo, wild oat (Avena fatua); conditions: AAH 320 g/ha
Outline: as §3

Italian ryegrass [5] = experiment: Test Example 4: herbicidal effect by soil treatment (Table 19, symbol K); assay type: in vivo, Italian ryegrass (Lolium multiflorum); conditions: AAH 320 g/ha
Outline: as §3

velvetleaf [6] = experiment: Test Example 4: herbicidal effect by soil treatment (Table 19, symbol M); assay type: in vivo, velvetleaf (Abutilon theophrasti); conditions: AAH 320 g/ha
Outline: as §3

redroot pigweed [7] = experiment: Test Example 4: herbicidal effect by soil treatment (Table 19, symbol N); assay type: in vivo, redroot pigweed (Amaranthus retroflexus); conditions: AAH 320 g/ha
Outline: as §3

lambsquarters = experiment: Test Example 4: herbicidal effect by soil treatment (Table 19, symbol O); assay type: in vivo, lambsquarters (Chenopodium album); conditions: AAH 320 g/ha
Outline: as §3

chickweed [8] = experiment: Test Example 4: herbicidal effect by soil treatment (Table 19, symbol P); assay type: in vivo, common chickweed (Stellaria media); conditions: AAH 320 g/ha
Outline: as §3

green foxtail [9] = experiment: Test Example 5: herbicidal effect by foliage application, plastic box (Table 20, symbol G); assay type: in vivo, green foxtail (Setaria viridis); conditions: foliage application, AAH 320 g/ha, three weeks after application
Outline: (§4)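 Plants sown in sterilized diluvial soil and grown 14 days in a greenhouse at 25° C to 30° C, then sprayed on the foliage with the compound's emulsion diluted in water to a predetermined herbicide amount. Injury to weeds and crops scored three weeks after application on a visual rating scale.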

wild oat [10] = experiment: Test Example 5: herbicidal effect by foliage application, plastic box (Table 20, symbol I); assay type: in vivo, wild oat (Avena fatua); conditions: foliage application, AAH 320 g/ha, three weeks after application
Outline: as §4

blackgrass = experiment: Test Example 5: herbicidal effect by foliage application, plastic box (Table 20, symbol J); assay type: in vivo, blackgrass (Alopecurus myosuroides); conditions: foliage application, AAH 320 g/ha, three weeks after application
Outline: as §4

Italian ryegrass [11] = experiment: Test Example 5: herbicidal effect by foliage application, plastic box (Table 20, symbol K); assay type: in vivo, Italian ryegrass (Lolium multiflorum); conditions: foliage application, AAH 320 g/ha, three weeks after application
Outline: as §4

windgrass = experiment: Test Example 5: herbicidal effect by foliage application, plastic box (Table 20, symbol L); assay type: in vivo, windgrass (Apera spica-venti); conditions: foliage application, AAH 320 g/ha, three weeks after application
Outline: as §4

velvetleaf [12] = experiment: Test Example 5: herbicidal effect by foliage application, plastic box (Table 20, symbol M); assay type: in vivo, velvetleaf (Abutilon theophrasti); conditions: foliage application, AAH 320 g/ha, three weeks after application
Outline: as §4

redroot pigweed [13] = experiment: Test Example 5: herbicidal effect by foliage application, plastic box (Table 20, symbol N); assay type: in vivo, redroot pigweed (Amaranthus retroflexus); conditions: foliage application, AAH 320 g/ha, three weeks after application
Outline: as §4

chickweed [14] = experiment: Test Example 5: herbicidal effect by foliage application, plastic box (Table 20, symbol P); assay type: in vivo, common chickweed (Stellaria media); conditions: foliage application, AAH 320 g/ha, three weeks after application
Outline: as §4

persian speedwell = experiment: Test Example 5: herbicidal effect by foliage application, plastic box (Table 20, symbol R); assay type: in vivo, Persian speedwell (Veronica persica); conditions: foliage application, AAH 320 g/ha, three weeks after application
Outline: as §4

SMILES	herbicidal effect rating, A: late watergrass (late watergrass)	herbicidal effect rating, B: Japanese bulrush (Japanese bulrush)	herbicidal effect on H (barnyard grass), rating 0-5 (barnyard grass [1])	herbicidal effect on E (rice flat sedge), rating 0-5 (rice flat sedge)	F: southern crabgrass, herbicidal effect rating (southern crabgrass)	G: green foxtail, herbicidal effect rating (green foxtail [2])	H: barnyard grass, herbicidal effect rating (barnyard grass [3])	I: wild oat, herbicidal effect rating (wild oat [4])	K: Italian ryegrass, herbicidal effect rating (Italian ryegrass [5])	M: velvetleaf, herbicidal effect rating (velvetleaf [6])	N: redroot pigweed, herbicidal effect rating (redroot pigweed [7])	O: lambsquarters, herbicidal effect rating (lambsquarters)	P: chickweed, herbicidal effect rating (chickweed [8])	G: green foxtail, herbicidal effect (green foxtail [9])	I: wild oat, herbicidal effect (wild oat [10])	J: blackgrass, herbicidal effect (blackgrass)	K: Italian ryegrass, herbicidal effect (Italian ryegrass [11])	L: windgrass, herbicidal effect (windgrass)	M: velvetleaf, herbicidal effect (velvetleaf [12])	N: redroot pigweed, herbicidal effect (redroot pigweed [13])	other results
C#CCOc1ccc(-c2sc3ccccc3c2-c2c(O)c(C)nn(C)c2=O)cc1 [1-136]	0 (Herbicidal rate of 5% or less (almost no effect))	2 (Herbicidal rate of 20% or more and less than 40%)	5 (Herbicidal rate of 90% or more (almost completely withered))	5 (Herbicidal rate of 90% or more (almost completely withered))	2 (Herbicidal rate of 20% or more and less than 40%)	4 (Herbicidal rate of 70% or more and less than 90%)	4 (Herbicidal rate of 70% or more and less than 90%)	0 (Herbicidal rate of 5% or less (almost no effect))	5 (Herbicidal rate of 90% or more (almost completely withered))	3 (Herbicidal rate of 40% or more and less than 70%)	4 (Herbicidal rate of 70% or more and less than 90%)	5 (Herbicidal rate of 90% or more (almost completely withered))	1 (Herbicidal rate of 5% or more and less than 20%)	5 (Herbicidal rate of 90% or more (almost completely withered))	0 (Herbicidal rate of 5% or less (almost no effect))	1 (Herbicidal rate of 5% or more and less than 20%)	5 (Herbicidal rate of 90% or more (almost completely withered))	5 (Herbicidal rate of 90% or more (almost completely withered))	4 (Herbicidal rate of 70% or more and less than 90%)	4 (Herbicidal rate of 70% or more and less than 90%)	P: chickweed, herbicidal effect (chickweed [14]): 5 (Herbicidal rate of 90% or more (almost completely withered)); R: persian speedwell, herbicidal effect (persian speedwell): 5 (Herbicidal rate of 90% or more (almost completely withered))
Cc1nn(C)c(=O)c(-c2c(-c3ccc(OCC(F)(F)F)cc3)sc3ccccc23)c1O [1-140]	3 (Herbicidal rate of 40% or more and less than 70%)	3 (Herbicidal rate of 40% or more and less than 70%)	5 (Herbicidal rate of 90% or more (almost completely withered))	5 (Herbicidal rate of 90% or more (almost completely withered))	5 (Herbicidal rate of 90% or more (almost completely withered))	5 (Herbicidal rate of 90% or more (almost completely withered))	5 (Herbicidal rate of 90% or more (almost completely withered))	0 (Herbicidal rate of 5% or less (almost no effect))	5 (Herbicidal rate of 90% or more (almost completely withered))	5 (Herbicidal rate of 90% or more (almost completely withered))	5 (Herbicidal rate of 90% or more (almost completely withered))	5 (Herbicidal rate of 90% or more (almost completely withered))	4 (Herbicidal rate of 70% or more and less than 90%)	5 (Herbicidal rate of 90% or more (almost completely withered))	0 (Herbicidal rate of 5% or less (almost no effect))	4 (Herbicidal rate of 70% or more and less than 90%)	5 (Herbicidal rate of 90% or more (almost completely withered))	3 (Herbicidal rate of 40% or more and less than 70%)	4 (Herbicidal rate of 70% or more and less than 90%)	4 (Herbicidal rate of 70% or more and less than 90%)	P: chickweed, herbicidal effect (chickweed [14]): 5 (Herbicidal rate of 90% or more (almost completely withered)); R: persian speedwell, herbicidal effect (persian speedwell): 5 (Herbicidal rate of 90% or more (almost completely withered))
Cc1nn(C)c(=O)c(-c2c(-c3ccc([N+](=O)[O-])cc3)sc3ccccc23)c1O [1-151]	0 (Herbicidal rate of 5% or less (almost no effect))	2 (Herbicidal rate of 20% or more and less than 40%)	4 (Herbicidal rate of 70% or more and less than 90%)	5 (Herbicidal rate of 90% or more (almost completely withered))	0 (Herbicidal rate of 5% or less (almost no effect))	0 (Herbicidal rate of 5% or less (almost no effect))	0 (Herbicidal rate of 5% or less (almost no effect))	0 (Herbicidal rate of 5% or less (almost no effect))	3 (Herbicidal rate of 40% or more and less than 70%)	0 (Herbicidal rate of 5% or less (almost no effect))	3 (Herbicidal rate of 40% or more and less than 70%)	2 (Herbicidal rate of 20% or more and less than 40%)	0 (Herbicidal rate of 5% or less (almost no effect))	3 (Herbicidal rate of 40% or more and less than 70%)	0 (Herbicidal rate of 5% or less (almost no effect))	0 (Herbicidal rate of 5% or less (almost no effect))	5 (Herbicidal rate of 90% or more (almost completely withered))	0 (Herbicidal rate of 5% or less (almost no effect))	5 (Herbicidal rate of 90% or more (almost completely withered))	5 (Herbicidal rate of 90% or more (almost completely withered))	P: chickweed, herbicidal effect (chickweed [14]): 5 (Herbicidal rate of 90% or more (almost completely withered)); R: persian speedwell, herbicidal effect (persian speedwell): 5 (Herbicidal rate of 90% or more (almost completely withered))
